For test [1], the system named is NF-κB pathway (SEAP) in THP1-Dual cells. In words: THP-1 Dual cell SEAP assay (L18-MDP stimulated). The test is classed as cell-based. Conditions: Homo sapiens, THP1-Dual, read-out: NFkB THP1 IC50.
In test [2] the target is GST-RIPK2 fusion protein (human RIPK2 amino acids 1-310) (Homo sapiens (Human), UniProt O43353). In words: RIPK2 binding competition assay (TR-FRET, Tracer 199). For orientation: Time-resolved FRET reads energy transfer from a long-lived donor to a nearby acceptor.
The mark [3] stands for this setting: read-out: RIPK2 IC50, RIPK2 binding competition assay.

pIC50: −log10 of the molar value. Where two headings read alike, the source gives them in different places. Bounds are passed on as bounds.

Sequence of GST-RIPK2 fusion protein (human RIPK2 amino acids 1-310) (O43353 1-310): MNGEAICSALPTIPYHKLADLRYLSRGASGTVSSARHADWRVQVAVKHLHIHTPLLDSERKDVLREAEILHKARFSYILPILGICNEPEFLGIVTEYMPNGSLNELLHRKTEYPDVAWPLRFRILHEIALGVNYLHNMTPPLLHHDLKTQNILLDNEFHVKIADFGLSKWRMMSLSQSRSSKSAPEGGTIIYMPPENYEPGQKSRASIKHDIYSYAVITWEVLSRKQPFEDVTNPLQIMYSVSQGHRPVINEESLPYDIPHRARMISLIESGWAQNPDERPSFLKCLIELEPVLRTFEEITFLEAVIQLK

As to `CC(C)(C)S(=O)(=O)c1ccn2ncc(-c3ccc(N)nc3F)c2c1` [Example 300, 5-(5-(tert-butylsulfonyl)pyrazolo[1,5-a]pyridin-3-yl)-6-fluoropyridin-2-amine], the pIC50 is under 6.00 in test [1] and under 7.70 in test [2].

Regarding `CCc1ccc(-c2cnc3cc(OC)c(S(=O)(=O)C(C)(C)C)cn23)cc1NS(C)(=O)=O` [Example 143, N-(5-(6-(tert-butylsulfonyl)-7-methoxyimidazo[1,2-a]pyridin-3-yl)-2-ethylphenyl) methanesulfonamide], the pIC50 in test [1] was under 6.00; in test [2], 7.70 to 8.60.

`COc1cc2ncc(-c3cc(C)c(OC)c(NCCCO)c3)n2cc1S(=O)(=O)C(C)(C)C` [Example 322, 3-((5-(6-(tert-butylsulfonyl)-7-methoxyimidazo[1,2-a]pyridin-3-yl)-2-methoxy-3-methylphenyl)amino)propan-1-ol]: the pIC50 in test [1] was under 6.00; in test [2], 7.70 to 8.60.

As to `COc1cc2ncc(-c3cc(Cl)c(N)nc3F)n2cc1S(=O)(=O)C(C)(C)C` [Example 75, 5-(6-(tert-butylsulfonyl)-7-methoxyimidazo[1,2-a]pyridin-3-yl)-3-chloro-6-fluoropyridin-2-amine], the pIC50 in test [1] was 6.60 to 7.30; in test [2], 7.70 to 8.60.

For `CCCS(=O)(=O)Nc1cc(-c2cnc3cc(OC)c(S(=O)(=O)C(C)(C)C)cn23)cc(F)c1C` [Example 262, N-(5-(6-(tert-butylsulfonyl)-7-methoxyimidazo[1,2-a]pyridin-3-yl)-3-fluoro-2-methylphenyl)propane-1-sulfonamide], the pIC50 in test [1] is 6.00 to 6.60; in test [2], 7.70 to 8.60.

Consider `CCCS(=O)(=O)Nc1cccc(-c2cnc3cc(OC)c(S(=O)(=O)C(C)(C)C)cn23)c1` [Example 269, N-(3-(6-(tert-butylsulfonyl)-7-methoxyimidazo[1,2-a]pyridin-3-yl)phenyl)propane-1-sulfonamide], for which the pIC50 is 6.00 to 6.60 in test [1] and 8.60 to 9.00 in test [2].

In the case of `COc1cc2ncc(-c3cc(N)cc(S(C)(=O)=O)c3)n2cc1S(=O)(=O)C(C)(C)C` [Example 37, 3-(6-(tert-butylsulfonyl)-7-methoxyimidazo[1,2-a]pyridin-3-yl)-5-(methylsulfonyl)aniline], the pIC50 in test [1] was under 6.00; in test [2] (setting [3]) it was under 7.70.

Take `COc1cn2ncc(-c3cc(C#N)c(N)nc3F)c2cc1S(=O)(=O)C(C)(C)C` [Example 110, 2-amino-5-(5-(tert-butylsulfonyl)-6-methoxypyrazolo[1,5-a]pyridin-3-yl)-6-fluoronicotinonitrile]: the pIC50 in test [1] is under 6.00; in test [2], 7.70 to 8.60.

`COc1cc2ncc(-c3cnc(N)s3)n2cc1S(=O)(=O)C(C)(C)C` [Example 166, 5-(6-(tert-butylsulfonyl)-7-methoxyimidazo[1,2-a]pyridin-3-yl)thiazol-2-amine]: the pIC50 in test [1] is under 6.00; in test [2] (setting [3]) it was under 7.70.

In the case of `CNc1cncc(-c2cnc3cc(OC)c(S(=O)(=O)C(C)(C)C)cn23)c1` [Example 34, 5-(6-(tert-butylsulfonyl)-7-methoxyimidazo[1,2-a]pyridin-3-yl)-N-methylpyridin-3-amine], the pIC50 in test [1] is under 6.00; in test [2] (setting [3]) it was under 7.70.

For `COc1cc2ncc(-c3cc(N)c(C#N)c(F)c3)n2cc1S(=O)(=O)C(C)(C)C` [Example 333, 2-amino-4-(6-(tert-butylsulfonyl)-7-methoxyimidazo[1,2-a]pyridin-3-yl)-6-fluorobenzonitrile], the pIC50 was 6.00 to 6.60 in test [1] and 7.70 to 8.60 in test [2].

For `COc1cc2ncc(-c3cc(F)c(OC)c(OC)c3)n2cc1S(=O)(=O)C(C)(C)C` [Example 58, 6-(tert-butylsulfonyl)-3-(3-fluoro-4,5-dimethoxyphenyl)-7-methoxyimidazo[1,2-a]pyridine], the pIC50 in test [1] is under 6.00; in test [2], 7.70 to 8.60.

With `COc1cc2ncc(-c3csc(N)n3)n2cc1S(=O)(=O)C(C)(C)C` [Example 165, 4-(6-(tert-butylsulfonyl)-7-methoxyimidazo[1,2-a]pyridin-3-yl)thiazol-2-amine], the pIC50 in test [1] is 6.00 to 6.60; in test [2], 7.70 to 8.60.

As to `COc1cc2ncc(-c3cc(F)nc(N(C)CCCO)c3)n2cc1S(=O)(=O)C(C)(C)C` [Example 209, 3-((4-(6-(tert-butylsulfonyl)-7-methoxyimidazo[1,2-a]pyridin-3-yl)-6-fluoropyridin-2-yl)(methyl)amino) propan-1-ol], the pIC50 is 6.60 to 7.30 in test [1] and 8.60 to 9.00 in test [2].

On to `CCCS(=O)(=O)Nc1cc(-c2cnc3cc(OC)c(S(=O)(=O)C(C)(C)C)cn23)cc(OC(F)(F)F)c1F` [Example 138, N-{2-fluoro-5-[7-methoxy-6-(2-methylpropane-2-sulfonyl)imidazo[1,2-a]pyridin-3-yl]-3-(trifluoromethoxy)phenyl}propane-1-sulfonamide], for which the pIC50 in test [1] was under 6.00; in test [2] (setting [3]), under 7.70.

`COc1ccn2c(-c3cc(F)nc(F)c3)cnc2c1` [Example 45, 3-(2,6-difluoropyridin-4-yl)-7-methoxyimidazo[1,2-a]pyridine]: the results for the pIC50 in test [1] and in test [2] (setting [3]) were under 6.00 and under 7.70, respectively.

Regarding `COc1cc2ncc(-c3cnc(N)c(N)n3)n2cc1S(=O)(=O)C(C)(C)C` [Example 128, 5-(6-(tert-butylsulfonyl)-7-methoxyimidazo[1,2-a]pyridin-3-yl)pyrazine-2,3-diamine], the pIC50 is under 6.00 in test [1] and under 7.70 in test [2] (setting [3]).

For the compound `COc1cc2ncc(-c3cc(F)nc(NCC[C@@H]4CNC(=O)C4)c3)n2cc1S(=O)(=O)C(C)(C)C` (single isomer, unassigned) [Example 241, (4R or S)-4-[2-({6-fluoro-4-[7-methoxy-6-(2-methylpropane-2-sulfonyl)imidazo[1,2-a]pyridin-3-yl]pyridin-2-yl}amino)ethyl] pyrrolidin-2-one], the pIC50 is over 7.30 in test [1] and over 9.00 in test [2].

Take `COc1ccc(CNc2cc(-c3cnc4cc(OC)c(S(=O)(=O)C(C)(C)C)cn34)cc(F)n2)cc1` [Example 216]: the results for the pIC50 in test [1] and in test [2] (setting [3]) were 6.60 to 7.30 and over 9.00, respectively.

As for `COc1cc2ncc(-c3cc(F)nc(NCC(F)(F)CO)c3)n2cc1S(=O)(=O)C(C)(C)C` [Example 228, 2,2-difluoro-3-({6-fluoro-4-[7-methoxy-6-(2-methylpropane-2-sulfonyl)imidazo[1,2-a]pyridin-3-yl]pyridin-2-yl}amino)propan-1-ol], the pIC50 in test [1] is over 7.30; in test [2] (setting [3]) it was over 9.00.

`COc1cn2ncc(-c3cc(Cl)c(N)nc3F)c2cc1S(=O)(=O)C(C)(C)C` [Example 105, 5-(5-(tert-butylsulfonyl)-6-methoxypyrazolo[1,5-a]pyridin-3-yl)-3-chloro-6-fluoropyridin-2-amine]: the pIC50 in test [1] is 6.60 to 7.30; in test [2] it was 7.70 to 8.60.

For the compound `COc1cc2ncc(-c3cc(F)nc(NC4CCOCC4)c3)n2cc1S(=O)(=O)C(C)(C)C` [Example 212, 4-(6-(tert-butylsulfonyl)-7-methoxyimidazo[1,2-a]pyridin-3-yl)-6-fluoro-N-(tetrahydro-2H-pyran-4-yl)pyridin-2-amine], the pIC50 was under 6.00 in test [1] and 7.70 to 8.60 in test [2].

`COc1cc2ncc(-c3cccc(N)c3)n2cc1S(=O)(=O)C(C)(C)C` [Example 36, 3-(6-(tert-butylsulfonyl)-7-methoxyimidazo[1,2-a]pyridin-3-yl)aniline]: the pIC50 was under 6.00 in test [1] and under 7.70 in test [2] (setting [3]).

For `COc1cc2ncc(-c3cc(N)cc(F)c3)n2cc1S(=O)(=O)C(C)(C)C` [Example 157, 3-(6-(tert-butylsulfonyl)-7-methoxyimidazo[1,2-a]pyridin-3-yl)-5-fluoroaniline], the negative-log IC50 (pIC50) in test [1] was 6.60 to 7.30; in test [2], 7.70 to 8.60.

Turning to `CCOc1cn2ncc(-c3cc(Cl)c(N)nc3F)c2cc1S(=O)(=O)C(C)(C)C` [Example 114, 5-(5-(tert-butylsulfonyl)-6-ethoxypyrazolo[1,5-a]pyridin-3-yl)-3-chloro-6-fluoropyridin-2-amine], the pIC50 was 6.60 to 7.30 in test [1] and 8.60 to 9.00 in test [2].

Turning to `CNC(=O)c1cn2c(-c3cc(F)nc(NCCCO)c3)cnc2cc1OC` [Example 251, 3-{2-fluoro-6-[(3-hydroxypropyl)amino]pyridin-4-yl}-7-methoxy-N-methylimidazo[1,2-a]pyridine-6-carboxamide], the pIC50 was over 7.30 in test [1] and 8.60 to 9.00 in test [2].

`CCCS(=O)(=O)Nc1cc(-c2cnc3cc(OC)c(S(=O)(=O)C(C)(C)C)cn23)cc(F)c1OCC` [Example 270, N-(5-(6-(tert-butylsulfonyl)-7-methoxyimidazo[1,2-a]pyridin-3-yl)-2-ethoxy-3-fluorophenyl)propane-1-sulfonamide]: the pIC50 in test [1] was 6.00 to 6.60; in test [2] it was 8.60 to 9.00.

`COc1cc2ncc(-c3ccc(N(C)C)nc3)n2cc1S(=O)(=O)C(C)(C)C` [Example 16, 5-(6-(tert-butylsulfonyl)-7-methoxyimidazo[1,2-a]pyridin-3-yl)-N,N-dimethylpyridin-2-amine]: the results for the pIC50 in test [1] and in test [2] (setting [3]) were under 6.00 and under 7.70, respectively.

For the compound `COc1cc2ncc(-c3cc(F)nc(F)c3)n2cc1S(=N)(=O)C(C)(C)C` (centres unmarked) [Example 315, tert-butyl(3-(2,6-difluoropyridin-4-yl)-7-methoxyimidazo[1,2-a]pyridin-6-yl)(imino)-λ^6-sulfanone], the pIC50 was under 6.00 in test [1] and under 7.70 in test [2] (setting [3]).

Take `COc1cc2ncc(-c3cc(F)nc(NC[C@H](C)O)c3)n2cc1S(=O)(=O)C(C)(C)C` [Example 227, (2S)-1-({6-fluoro-4-[7-methoxy-6-(2-methylpropane-2-sulfonyl)imidazo[1,2-a]pyridin-3-yl]pyridin-2-yl}amino)propan-2-ol]: the pIC50 in test [1] was over 7.30; in test [2] it was 8.60 to 9.00.

On to `COc1cc2ncc(-c3cc(F)nc(NC[C@@H](C)O)c3)n2cc1S(=O)(=O)C(C)(C)C` [Example 226, (2R)-1-({6-fluoro-4-[7-methoxy-6-(2-methylpropane-2-sulfonyl)imidazo[1,2-a]pyridin-3-yl]pyridin-2-yl}amino)propan-2-ol], for which the pIC50 in test [1] is over 7.30; in test [2], 8.60 to 9.00.

As a reminder, the pIC50 is −log10 of the IC50, conventionally taken in molar units.

These data come from US20250346593A1, “IMIDAZO(1,2-1)PYRIDINE DERIVATIVES AS RIPK2 INHIBITORS” (Interline Therapeutics, Inc., priority 2022, published 2025).
